From article PMC3914206 come the findings set out here.

Common to all, as to type: binding
Holding throughout (conditions): Compound Concentration 10 µM

The target in assay [1] is T1, panel of 442 kinases (Homo sapiens, UniProt Q8TD08).
T1 construct: purchased KINOMEscan
T1 sequence (Q8TD08 1-544): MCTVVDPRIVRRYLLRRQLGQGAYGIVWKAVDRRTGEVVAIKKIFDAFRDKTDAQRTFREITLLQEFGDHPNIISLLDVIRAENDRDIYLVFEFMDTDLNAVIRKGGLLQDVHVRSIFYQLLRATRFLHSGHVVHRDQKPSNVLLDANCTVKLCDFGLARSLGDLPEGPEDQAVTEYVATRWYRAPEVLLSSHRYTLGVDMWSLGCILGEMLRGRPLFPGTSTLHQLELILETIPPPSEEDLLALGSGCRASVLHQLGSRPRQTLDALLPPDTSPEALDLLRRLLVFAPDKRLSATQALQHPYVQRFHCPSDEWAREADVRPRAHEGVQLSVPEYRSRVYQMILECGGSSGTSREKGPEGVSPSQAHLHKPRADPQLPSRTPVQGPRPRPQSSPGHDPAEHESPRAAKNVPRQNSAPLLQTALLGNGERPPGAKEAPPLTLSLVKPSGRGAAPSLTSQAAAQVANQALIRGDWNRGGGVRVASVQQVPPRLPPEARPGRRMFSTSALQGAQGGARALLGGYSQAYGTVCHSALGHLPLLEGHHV
The text has this: (§1) We assessed the selectivity of members of this scaffold using the KINOMEscan methodology across a near comprehensive panel of 442 kinases [[18,27]].

The target in assay [2] is T2, panel of 442 kinases (Homo sapiens, UniProt P10721, T670I/V559D).
T2 construct: purchased KINOMEscan
Excerpt: as §1

Assay [3] has as its target T3, panel of 442 kinases (Homo sapiens, UniProt P00519, Y253F).
T3 construct: purchased KINOMEscan
Excerpt: as §1

The structures appear in SMILES notation.

T2 sequence (P10721 26-976 V559D/T670I): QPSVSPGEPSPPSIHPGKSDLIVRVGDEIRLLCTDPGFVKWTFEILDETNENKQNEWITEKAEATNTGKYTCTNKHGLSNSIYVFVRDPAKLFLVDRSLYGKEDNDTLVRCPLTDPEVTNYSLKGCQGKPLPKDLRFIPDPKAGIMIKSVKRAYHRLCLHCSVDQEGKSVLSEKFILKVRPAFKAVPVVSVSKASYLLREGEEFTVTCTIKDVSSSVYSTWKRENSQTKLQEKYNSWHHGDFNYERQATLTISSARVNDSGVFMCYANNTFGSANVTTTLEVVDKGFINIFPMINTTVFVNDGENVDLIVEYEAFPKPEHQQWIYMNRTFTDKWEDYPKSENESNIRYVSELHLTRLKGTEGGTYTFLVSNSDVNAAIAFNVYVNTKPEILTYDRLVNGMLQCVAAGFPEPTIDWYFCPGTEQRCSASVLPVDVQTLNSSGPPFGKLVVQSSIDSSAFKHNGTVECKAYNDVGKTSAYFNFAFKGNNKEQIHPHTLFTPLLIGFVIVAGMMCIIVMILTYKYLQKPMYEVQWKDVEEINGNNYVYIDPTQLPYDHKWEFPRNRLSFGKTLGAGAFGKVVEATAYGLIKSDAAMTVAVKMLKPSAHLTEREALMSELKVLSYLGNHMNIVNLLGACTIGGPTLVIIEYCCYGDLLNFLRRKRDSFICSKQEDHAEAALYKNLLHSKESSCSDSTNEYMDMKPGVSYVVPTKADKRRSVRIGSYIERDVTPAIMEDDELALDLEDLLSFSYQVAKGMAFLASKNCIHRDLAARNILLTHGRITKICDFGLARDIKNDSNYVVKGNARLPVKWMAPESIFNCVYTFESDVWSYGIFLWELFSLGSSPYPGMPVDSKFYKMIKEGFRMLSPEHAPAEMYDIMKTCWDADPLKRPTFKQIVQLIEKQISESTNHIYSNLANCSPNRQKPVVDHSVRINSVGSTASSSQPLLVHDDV

Take `COc1cc(C(=O)N2CCC(N3CCN(C)CC3)CC2)ccc1Nc1ncc2c(n1)N(C)c1ccccc1C(=O)N2C` [15 (LRRK2-IN-1)]: the “KINOMEscan: ERK8” value in assay [1] came out at 100. Moreover, the “KINOMEscan: KIT(V559D,T670I)” value in assay [2] is recorded as 81. Besides, in assay [3], the “KINOMEscan: ABL1(Y253F)-phosphorylated” value stood at 89.

As for `COc1cc(C(=O)N2CCC(N3CCN(C)CC3)CC2)ccc1Nc1ncc2c(n1)N(C1CCCC1)c1ccccc1C(=O)N2C` [Compound 25, 11-cyclopentyl-2-((2-methoxy-4-(4-(4-methylpiperazin-1-yl)piperidine-1-carbonyl)phenyl)amino)-5-methyl-5H-benzo[e]pyrimido[5,4-b][1,4]diazepin-6(11H)-one], the “KINOMEscan: ERK8” value in assay [1] was determined as 99. The “KINOMEscan: KIT(V559D,T670I)” value in assay [2] is 80. Moreover, the “KINOMEscan: ABL1(Y253F)-phosphorylated” value in assay [3] is recorded as 60.

As to `CCOc1cc(C(=O)N2CCC(N3CCN(C)CC3)CC2)ccc1Nc1ncc2c(n1)N(C1CCCC1)c1ccccc1C(=O)N2C` [Compound 26], the “KINOMEscan: ERK8” value in assay [1] was 100. Moreover, the “KINOMEscan: KIT(V559D,T670I)” value in assay [2] was determined as 100. Besides, in assay [3], the “KINOMEscan: ABL1(Y253F)-phosphorylated” value is listed as 100.
